“Also recorded” adds a separate entry of the source.
How the values were obtained:
[1] = tested on: A2ECs treated with IL-17A; assay: A2ECs exposed to IL-17A in vitro; type: cell-based, mouse; conditions: for IL-17A-induced p53 and PAI-1 expression, and apoptosis: A2ECs from WT mice, IL-17A 100 ng/ml
Method: FIGS. 49A-49B show the role of IL-17A in PTS-induced p53, PAI-1 expression, and apoptosis in A2ECs. (A) IL-17A^−/− mice resist PTS-induced p53 expression and apoptosis in A2ECs. Mice were kept in ambient AIR or exposed to 20 weeks of PTS. A2ECs isolated from WT and IL-17A^−/− mice in AIR or exposed to PTS were analyzed for acetylated/total p53, Sirt1 and activated caspase-3 to assess apoptosis by Western blotting. (B) CSP inhibits IL-17A-induced p53 and PAI-1 expression and apoptosis in A2ECs in vitro. A2ECs isolated from WT mice were treated with PBS or IL-17A (100 ng/ml) in the presence or absence of CSP or control peptide, CP for 24 h in culture dishes. A2EC lysates were immunoblotted for p53, PAI-1, Cl./total caspase-3 and β-actin. WT mice exposed to IL-17A (FIG. 48D) and PTS (FIG. 46A) induce p53 acetylation and Cav1 expression, while inhibiting Sirt1 in A2ECs.
FIGS. 58A-58B show a 7-amino acid fragment of CSP, CSP7 Inhibits IL-17A-induced A2EC apoptosis. (A) Fragments of CSP were synthesized as shown. (B) A2ECs were treated with CSP or its fragments, or CP, 2 h after exposure of cells to IL-17A. A2EC lysates were immunoblotted for acetylated/total p53 and active/total caspase-3 24 h after IL-17A exposure. β-actin levels were evaluated to assess equal loading.
Increased p53 and apoptosis in A2ECs of mice exposed to PTS or IL-17A provided evidence that PTS acts by increasing IL-17A. To confirm that increased IL-17A contributes to the induction of p53 and PAI-1 expression, and apoptosis in A2ECs during PTS-induced lung injury, IL-17A-deficient mice were exposed to 20 weeks of PTS and control mice were kept in ambient air. A2ECs were tested for p53^AC, p53 and Sirt1 expression, and apoptosis. The responses were compared with changes in A2ECs isolated from WT mice exposed to 20 weeks of PTS or AIR. There was marked induction of p53^AC and p53 levels, and apoptosis with parallel suppression of Sirt1 expression in WT mice exposed to 20 weeks of PTS. […] To confirm mitigation of PTS induced lung injury by CSP or CSP7 involves suppression of IL-17A-induced p53, PAI-1 and apoptosis, A2ECs isolated from WT mice were next treated with IL-17A (100 ng/ml) with or without CSP, CSP7 or CP. Control cells were treated with vehicle (PBS) alone. The A2EC lysates were tested for p53 and p53-mediated downstream induction of PAI-1, and apoptosis. […] Further, induction of miR-34a increased p53 and apoptosis in A2ECs without exposure to tobacco smoke, while inhibition of miR-34a using miR-34a antisense (miR-34a-AS) reduced cigarette smoke induced p53 expression and apoptosis. Results of both in vitro and in vivo experiments support an intricate link between miR-34a, p53^AC, p53 and p53-mediated induction of PAI-1 expression, and A2EC apoptosis during PTS lung injury.

A2Cs of IL-17A^−/− mice = assay: Tobacco smoke exposure of IL-17A-/- mice; type: in vivo, mouse; conditions: 20 weeks TS; for IHC Trf1 or Trf2 antigen staining: IL-17A-deficient mice
Method: Mouse models and CSP7 treatment. All experiments involving mice were performed according to the approved protocols under the guidelines of Institutional Animal Care and Use Committee. Wild type (WT), and PAI-1^−/− and uPA^−/− mice of C57BL/6 background purchased from Jackson Laboratory (Bar Harbor, ME) were used for the experiments. IL-17A^−/− mice were obtained from University of Tokyo, Japan.
To test the effect of chronic TS exposure induced lung injury, these mice were exposed to passive TS from 40 research cigarettes over a 4 h period 5 days/week for 20 weeks (˜90 mg/m3 total solid particulates) using a mechanical smoking chamber (Teague Enterprises, Davis, CA) as described earlier. (Bhandary et al, 2015). Control mice were kept in ambient air. After sixteen weeks of daily passive TS exposure, mice with TS exposure injury were treated with CSP7 at a dosage of 1.5 mg/kg body weight daily 5 days/week for the next four weeks. These mice were continued with daily exposure of 4 h of TS during CSP7 treatment. At the end of the experiment (after 20 weeks of TS exposure), the mice were euthanized, and lungs were utilized for further analyses. To expand the local delivery options of CSP7 to directly treat the damaged lung by air-jet milling for dry powder inhalation (DPI). Mice exposed to TSE were treated with CSP7 using a rotating brush generator for 15 min daily for 7 days. Fourteen days later, BLM mice were subjected to daily inhalation of micronized CSP7 (0.05 mg/kg/d) DP through air-jet-milling for seven consecutive days using a rotating brush exposure system. The rotating brush exposure system gave a consistent minimal chamber concentration of 0.1 mg/L. In order to match dosing of DP inhalation, animal exposure times were adjusted to approximately 15 minutes and an estimated dose of 0.05 mg/kg/d or 1.00 microgram/lung was administered.

WT mice with CS-LI = assay: Chronic CS/TSE lung injury in WT mice treated by nebulization or IP injection; type: in vivo, mouse

Substance | IL-17A-induced p53 and PAI-1 expression, and apoptosis [1] | baseline telomerase activity (A2Cs of IL-17A^−/− mice; IL-17A-/- mice) | telomere shortening in A2Cs (A2Cs of IL-17A^−/− mice; IL-17A-/- mice) | IHC Trf1 or Trf2 antigen staining (A2Cs of IL-17A^−/− mice) | p53 and caspase-3 activation ([1]; A2ECs + IL-17A, CSP deletion fragments) | Ac-Tub staining in tracheal sections (WT mice with CS-LI; 20 weeks TSE/CS) | PAI-1 expression in AT2 cells (WT mice with CS-LI; CS-LI WT mice) | total, acetylated, serine phosphorylated p53, cleaved caspase-3, β-galactosidase in AT2 cells (WT mice with CS-LI; CS-LI WT mice, IP) | MUC5AC and HDAC6 mRNA in TECs (WT mice with CS-LI; CS-LI mice) | MUC5AC, HDAC6, FOXA3, CAV1 and FOXA2 mRNA in lung (WT mice with CS-LI; CS-LI mice) | PP2A and CIP2A mRNA in lung (WT mice with CS-LI; CS-LI mice) | macrophages in bronchoalveolar lavage (WT mice with CS-LI; CS-LI mice) | number of ciliated (Ac-Tub positive) tracheal epithelial cells (WT mice with CS-LI; MTEC/TECs isolated from treated mice) | H&E alveolar damage / mean linear intercept (MLI) (WT mice with CS-LI; Neb and IP) | IHC Ac-Tubulin, LC3 (and CAV1) in lung sections (WT mice with CS-LI; Neb and IP) | IHC Cav1 expression in lung sections (WT mice with CS-LI; Neb and IP) | IHC MUC5AC and HDAC6 staining in lung sections (WT mice with CS-LI; Neb or IP) | MUC5AC, HDAC6, SPDEF, LC3, FOXA2, Ac-tubulin in lung homogenates (WT mice with CS-LI; Neb or IP) | co-localization of MUC5AC and HDAC6 in lung sections (WT mice with CS-LI; Neb or IP) | CAV1, p53 and PAI-1 in lung homogenates (WT mice with CS-LI; via airways or systemically)
DGIWKASFTTFTVTKYWFYR (listed as Homo sapiens) [CSP, 20 residue caveolin-1 scaffolding domain peptide] | inhibited IL-17A-induced p53 and PAI-1 expression, and apoptosis | – | – | – | – | – | – | – | – | – | – | – | – | – | – | – | – | – | – | –
FTTFTVT (listed as Homo sapiens) [CSP7, heptapeptide fragment of the caveolin-1 scaffolding domain peptide CSP] | inhibited IL-17A-induced p53 and PAI-1 expression, and apoptosis | limited effects on baseline telomerase activity | minimal effect | little change in Trf1 or Trf2 antigen staining | inhibited p53 and caspase-3 activation | reversed in CSP7 treated WT mice; also recorded: improved | reduced | markedly suppressed | significantly reduced | significant reduction in MUC5AC, HDAC6, FOXA3, and CAV1 mRNA | reversed | significantly reduced | reversal; also recorded: significantly reversed; also recorded: increased the number of ciliated TECs | reversed; also recorded: significantly (P<0.0001) reduced | reversed in CSP7 (Neb and IP) treated WT mice | overcome | reversed; also recorded: remarkably improved; also recorded: markedly reduced | alleviated TSE MUC5AC and HDAC6 expression; also recorded: reversed | reversed; also recorded: markedly reduced in those treated with CSP7 | marked inhibition of CAV1, p53, and PAI-1
WGIDKAFFTTSTVTYKWFRY [CP, scrambled control peptide with the same amino acid composition as CSP, reference compound] | – | – | minimal effect | little change in Trf1 or Trf2 antigen staining | – | – | – | – | – | – | – | – | – | continued to show 479 alveolar damage | – | – | not evident | – | Increased staining and co-localization | –
